Assay results reported in patent publication US20060189684A1, “3-Phenylfuran-2-one derivatives as cox-2 inhibitor” (priority 2003, published 2006).

Key:
COX-2 = target: T1, COX-2 (Homo sapiens, UniProt P35354); assay: COX-2 activity in human whole blood (PGE2, LPS-induced); assay type: cell-based; settings: for IC50: human whole blood, LPS 10 μg/ml, 24 h at 37° C., PGE2 by ELISA; for Ratio COX-1/COX-2: ratio of human whole blood IC50 values
T1 construct: blood were incubated in the presence of LPS (10 μg/ml) for 24 h at 37° C. in order to induce the COX-2 expression; from tissue; host or cells: fresh heparinized human whole blood from healthy volunteers, LPS-stimulated
T1 sequence (P35354 18-604): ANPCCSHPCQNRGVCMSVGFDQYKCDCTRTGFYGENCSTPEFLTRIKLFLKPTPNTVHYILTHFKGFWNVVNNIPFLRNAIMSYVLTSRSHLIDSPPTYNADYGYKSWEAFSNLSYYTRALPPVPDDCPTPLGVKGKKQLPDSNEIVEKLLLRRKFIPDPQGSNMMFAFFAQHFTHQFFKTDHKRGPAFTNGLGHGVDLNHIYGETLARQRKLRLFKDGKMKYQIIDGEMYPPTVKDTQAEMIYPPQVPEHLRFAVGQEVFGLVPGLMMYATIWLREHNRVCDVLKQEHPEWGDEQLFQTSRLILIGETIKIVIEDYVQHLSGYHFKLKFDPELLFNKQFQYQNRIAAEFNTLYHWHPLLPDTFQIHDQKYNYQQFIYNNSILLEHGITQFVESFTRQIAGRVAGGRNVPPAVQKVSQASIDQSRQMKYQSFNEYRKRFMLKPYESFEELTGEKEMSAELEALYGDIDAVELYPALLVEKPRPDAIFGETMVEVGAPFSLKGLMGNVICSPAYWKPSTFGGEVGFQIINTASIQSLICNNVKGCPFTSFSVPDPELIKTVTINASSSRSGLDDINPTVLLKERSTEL
Procedure: (§1) COX-1 and COX-2 Activities in Human Whole Blood
For the COX-2 activity determination, 500 μl aliquots of blood were incubated in the presence of LPS (10 μg/ml) for 24 h at 37° C. in order to induce the COX-2 expression (Patriagnani et al., J. Pharm. Exper. Ther. 271; 1705-1712 (1994)). Plasma was separated by centrifugation (10 min at 13000 rpm) and kept at −30° C. until PGE2 levels were measured using an enzyme immunoassay kit (ELISA). The effects of inhibitors were studied by incubating each compound (5 μl aliquots) at five to six different concentrations with triplicate determinations in the presence of LPS for 24 hours. IC50 values were obtained by non-linear regression using InPlot, GraphPad software on an IBM computer.

COX-1 = target: T2, COX-1 (Homo sapiens, UniProt P23219); assay: COX-1 activity in human whole blood (TXB2, calcium ionophore A23187); assay type: cell-based; settings: 24 h at 37° C., A23187 25 μM, TXB2 by ELISA
T2 construct: from tissue; host or cells: fresh heparinized human whole blood from healthy volunteers
Procedure: as §1
Fresh blood from healthy volunteers who had not taken any non-steroidal anti-inflammatory drugs for at least 7 days prior to blood extraction was collected in heparinized tubes (20 units of heparin per ml). For the COX-1 activity determination, 500 μl aliquots of blood were incubated with either 5 μl vehicle (dimethylsulphoxide) or 5 μl of a test compound solution for 24 h at 37° C. Calcium ionophore A23187 (25 μM) was added 20 min before the incubation was ended. Plasma was separated by centrifugation (10 min at 13000 rpm) and kept at −30° C. until TXB2 levels were measured using an enzyme immunoassay kit (ELISA).
The effect of the compounds was evaluated by incubating each compound at five to six different concentrations with triplicate determinations. IC50 values were obtained by non-linear regression using InPlot, GraphPad software on an IBM computer.

T2 sequence (P23219 24-599): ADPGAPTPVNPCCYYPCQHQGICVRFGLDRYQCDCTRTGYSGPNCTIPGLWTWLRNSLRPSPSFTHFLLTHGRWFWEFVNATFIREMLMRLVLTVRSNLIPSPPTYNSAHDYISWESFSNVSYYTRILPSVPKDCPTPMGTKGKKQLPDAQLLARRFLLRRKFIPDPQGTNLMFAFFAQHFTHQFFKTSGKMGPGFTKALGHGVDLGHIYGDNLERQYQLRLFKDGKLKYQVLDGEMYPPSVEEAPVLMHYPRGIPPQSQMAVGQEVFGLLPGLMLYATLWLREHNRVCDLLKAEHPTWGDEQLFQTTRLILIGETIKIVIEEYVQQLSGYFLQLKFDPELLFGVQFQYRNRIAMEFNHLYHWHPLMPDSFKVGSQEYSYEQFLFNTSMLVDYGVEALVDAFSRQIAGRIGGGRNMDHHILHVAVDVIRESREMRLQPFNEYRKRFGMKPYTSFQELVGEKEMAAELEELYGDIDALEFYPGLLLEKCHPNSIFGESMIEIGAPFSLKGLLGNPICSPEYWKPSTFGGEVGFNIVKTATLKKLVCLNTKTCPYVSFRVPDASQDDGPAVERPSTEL

SMILES	IC50 (COX-2) [µM]	Ratio COX-1/COX-2 (COX-2)	IC50 (COX-1) [µM]
C[S@@+]([O-])c1ccc(C2=C(c3ccccc3)C(=O)OC2)cc1 [4-[4(methylsulfinyl)phenyl]-3-phenylfuran-2(5H)-one (Enantiomer 1a)]	4.22	7.6	32.2
C[S@+]([O-])c1ccc(C2=C(c3ccccc3)C(=O)OC2)cc1 [4-[4(methylsulfinyl)phenyl]-3-phenylfuran-2(5H)-one (Enantiomer 1b)]	2.1	18	37.8
C[S+]([O-])c1ccc(C2=C(c3ccccc3)C(=O)OC2)cc1 (racemic) [4-[4(methylsulfinyl)phenyl]-3-phenylfuran-2(5H)-one (racemate), 4-[4-(Methylsulfinyl)phenyl)-3-phenylfuran-2(6H)-one]			33.4
